In article PMC4868737, “BAY 1024767 blocks androgen receptor mutants found in castration-resistant prostate cancer patients” (Oncotarget, 2016):

Experiments:
[1] = test system: AR wild-type and mutants L701H, E709Y, V715M, W741C, H874Y, F876L, T877A, M895T and M895V; test: Transactivation assay, agonistic mode, transfected PC-3 cells, panel of AR variants; assay type: cell-based, human; details: all AR variants tested; no R1881 added with test compound; luciferase after 20 h
Procedure: Competitive binding to recombinant human AR was determined in presence of 5 nM tritiated R1881. PC-3 transfection and determination of luciferase activity were performed as before [49]. The test compounds were added with 0.1% ethanol (agonistic mode) or the indicated R1881 concentrations (antagonistic mode). The average value of six wells treated in parallel was taken. The experiments were repeated at least twice independently.

[2] = test system: PSA and FKBP5 expression in LNCaP cells (AR T877A mutant); test: mRNA expression of androgen target genes (real-time PCR); assay type: cell-based, human; details: 1 nM R1881, 24 h
Procedure: (§1) VCaP or LNCaP cells were seeded into 6-well plates in RPMI 1640 medium without phenol red, supplemented with 10% charcoal-stripped fetal calf serum (cFCS) and 2 mM stable glutamine, and maintained for 2 days prior to treatment. […] After 24 h treatment, total RNA was extracted using the RNeasy Mini Kit (Qiagen, Hilden, Germany) and reverse-transcription was performed using the SuperScript™ III First-Strand Synthesis SuperMix for qRT-PCR (Invitrogen, Carlsbad, […]). Transcript levels of AR target genes were determined by real-time PCR using the following assays (Applied Biosystems, Foster City, CA, USA): PSA Hs02576345_m1 and FKBP5 Hs00188025_m1. Human PPIA (Cyclophilin A) 4326316E was used as an internal control.

[3] = test system: PSA and FKBP5 expression in VCaP cells (AR wild-type); test: as above; assay type: cell-based, human; details: 1 nM R1881, 24 h
Procedure: as §1

[4] = Metabolic stability in liver microsomes; assay type: in vitro ADME; details: 1 μM, calculated from half-life
Procedure: The metabolic stability of BAY 1024767 was determined by incubating the compound with suspensions of liver microsomes from different species at a concentration of 1 μM. The intrinsic clearance was calculated from the half-life of the compound. Together with additional parameters like microsomal protein content, species-specific liver weight and liver blood flow, the hepatic in vivo blood clearance (CLH) was calculated.

[5] = Unbound plasma concentrations after multiple oral doses in male SCID mice; assay type: in vivo, mouse; details: multiple oral doses of 50 mg/kg every second day
From the text: Pharmacokinetic profiles in mouse.
indicate in vitro unbound anti-proliferative GI50 values measured in VCaP cells. Unbound concentrations -/+ SD for 2-3
(1 picture or pasted object on this page, not shown here)

[6] = test system: Dunning R3327-G prostate cancer model; test: Anti-tumor efficacy in the syngeneic Dunning rat R3327-G model; assay type: in vivo
Procedure: The Dunning R3327-G tumor [51] was maintained by serial in vivo passages. For the efficacy experiment, tumor tissue pieces of 8 mm^3 were inoculated subcutaneously (flank region) in 12-13 week-old male Copenhagen rats (COP/CrCrl strain, Charles River Laboratories). Treatment was started once the tumor reached 50 mm^2 and rats were randomly assigned to control (n = 9), castrated (n = 10) or treatment group (n = 10). In the treatment group 40 mg/kg of BAY 1024767 was given orally once a day (p.o., QD). The vehicle was NMP/PEG 1/9 (v/v). Rat body weight was measured at least twice a week. Tumor volume and weight were determined as above.

AR E709Y = biological target: T1, AR E709Y (Homo sapiens, UniProt P10275, E710Y); test: cell-based; details: IC50 (antagonistic activity)
T1 sequence (P10275 1-920 E710Y): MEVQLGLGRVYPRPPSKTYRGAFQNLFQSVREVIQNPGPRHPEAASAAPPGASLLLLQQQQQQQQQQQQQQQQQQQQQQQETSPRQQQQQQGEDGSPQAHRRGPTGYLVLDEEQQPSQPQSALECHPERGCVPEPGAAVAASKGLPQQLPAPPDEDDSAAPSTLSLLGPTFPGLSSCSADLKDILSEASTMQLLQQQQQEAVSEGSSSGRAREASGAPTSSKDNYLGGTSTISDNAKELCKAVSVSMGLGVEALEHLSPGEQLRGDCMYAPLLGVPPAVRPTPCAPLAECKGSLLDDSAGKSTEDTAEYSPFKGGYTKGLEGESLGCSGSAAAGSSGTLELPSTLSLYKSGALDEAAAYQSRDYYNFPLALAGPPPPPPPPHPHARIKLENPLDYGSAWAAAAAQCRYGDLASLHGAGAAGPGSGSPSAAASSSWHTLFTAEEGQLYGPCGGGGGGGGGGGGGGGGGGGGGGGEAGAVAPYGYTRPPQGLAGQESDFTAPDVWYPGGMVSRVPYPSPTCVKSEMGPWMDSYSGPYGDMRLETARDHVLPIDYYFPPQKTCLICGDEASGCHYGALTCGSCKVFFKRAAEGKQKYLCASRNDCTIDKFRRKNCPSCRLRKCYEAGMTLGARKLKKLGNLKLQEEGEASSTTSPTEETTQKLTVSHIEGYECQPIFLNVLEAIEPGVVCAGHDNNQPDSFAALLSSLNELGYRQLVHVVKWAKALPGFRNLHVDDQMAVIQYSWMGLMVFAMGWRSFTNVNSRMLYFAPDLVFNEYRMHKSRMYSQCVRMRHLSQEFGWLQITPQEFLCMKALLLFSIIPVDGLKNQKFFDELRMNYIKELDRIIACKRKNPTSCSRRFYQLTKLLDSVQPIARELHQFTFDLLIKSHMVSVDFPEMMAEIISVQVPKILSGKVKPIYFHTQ

AR V715M = AR V715M (Homo sapiens, UniProt P10275, V716M); test: cell-based; details: IC50 (antagonistic activity)
[7] = test system: AR binding to PSA gene regulatory elements; test: Chromatin immunoprecipitation (ChIP) in VCaP cells; details: 6 h, 1 nM R1881 with 5 μM compound
Procedure: VCaP cells were grown in 10 cm plates to 80% confluence. One plate of cells was used per immunoprecipitation. The cells were maintained in DMEM-cFCS for 3 days prior to treatment. […] After cell lysis (5 mM PIPES pH 8, 85 mM KCl, 0.5 % Nonidet P40) and nuclei isolation using RIPA buffer, chromatin was sheared to 100-2000 base pair-long fragments using a S220 ultrasonicator (Covaris, Woburn, MA, USA).
Immunoprecipitations were performed using the IPstar device (Diagenode, Liège, Belgium) with 20 μL of magnetic Protein A bead suspension. […] The buffers used were: bead wash (10 mM Tris-HCl pH 8, 1 mM EDTA, 0.02 % Tween-20), wash 1 (20 mM Tris-HCl pH 8, 2 mM EDTA, 150 mM NaCl, 1 % Triton X-100, 0.1 % SDS), wash 2 (20 mM Tris-HCl pH 8, 2 mM EDTA, 500 mM NaCl, 1 % Triton X-100, 0.1 % SDS), wash 3 (10 mM Tris-HCl pH 8, 1 mM EDTA, 250 mM LiCl, 1 % Nonidet P40, 1 % sodium deoxycholate) and elute (0.1 M NaHCO3, 1 % SDS).
The samples were treated with RNaseA and Proteinase K, and were purified using the Qiagen PCR purification kit before analysis by qPCR.

Question: Which results are given for `CC(C)(O)COc1ccc(CN2C(=S)N(c3ccc(C#N)c(C(F)(F)F)c3)C(=O)C2(C)C)cn1` [BAY 1024767]?
Answer: agonistic effect [1]: No dose-dependent agonistic activity; PSA and FKBP5 expression [2]: dose-dependent down-regulations; PSA and FKBP5 expression [3]: dose-dependent down-regulations; CLH ([4]; dog liver microsomes): 0.27 L/h/kg; CLH ([4]; human liver microsomes): 0.35 L/h/kg; CLH ([4]; monkey liver microsomes): 0.70 L/h/kg; CLH ([4]; mouse liver microsomes): 0.19 L/h/kg; CLH ([4]; rat liver microsomes): 0.28 L/h/kg; unbound plasma concentrations versus unbound anti-proliferative GI50 in VCaP cells [5]: remained over the unbound anti-proliferative GI50 values; body weight ([6]; 40 mg/kg p.o. daily): No significant body weight loss; tumor volumes ([6]; 40 mg/kg p.o. daily): significant anti-tumor efficacy; seminal vesicle weight ([6]; 40 mg/kg p.o. daily, comparable to castrated group, data not shown): strong inhibition; % T/C (tumor weight) ([6]; 40 mg/kg p.o. qdx49, day 113 post-tumor implantation): 11%; IC50 (AR E709Y; R1881 0.1 nM): 0.03 µM; IC50 (AR E709Y; R1881 1 nM): 0.13 µM; IC50 (AR E709Y; R1881 10 nM): 0.61 µM; IC50 (AR V715M; R1881 0.1 nM): 0.052 µM; IC50 (AR V715M; R1881 1 nM): 0.24 µM; AR binding to the PSA enhancer [7]: entirely prevented
